Source: article PMC6148290, “Endogenous metabolites of vitamin E limit inflammation by targeting 5-lipoxygenase” (Nature Communications, 2018)

Experiments:
[1] = biological target: T1, human recombinant soluble epoxide hydrolase (sEH) (Homo sapiens, UniProt P34913); experiment: sEH activity; type: biochemical
T1 construct: made in house; host or cells: Sf9 insect cells (recombinant baculovirus)
T1 sequence (P34913 1-555): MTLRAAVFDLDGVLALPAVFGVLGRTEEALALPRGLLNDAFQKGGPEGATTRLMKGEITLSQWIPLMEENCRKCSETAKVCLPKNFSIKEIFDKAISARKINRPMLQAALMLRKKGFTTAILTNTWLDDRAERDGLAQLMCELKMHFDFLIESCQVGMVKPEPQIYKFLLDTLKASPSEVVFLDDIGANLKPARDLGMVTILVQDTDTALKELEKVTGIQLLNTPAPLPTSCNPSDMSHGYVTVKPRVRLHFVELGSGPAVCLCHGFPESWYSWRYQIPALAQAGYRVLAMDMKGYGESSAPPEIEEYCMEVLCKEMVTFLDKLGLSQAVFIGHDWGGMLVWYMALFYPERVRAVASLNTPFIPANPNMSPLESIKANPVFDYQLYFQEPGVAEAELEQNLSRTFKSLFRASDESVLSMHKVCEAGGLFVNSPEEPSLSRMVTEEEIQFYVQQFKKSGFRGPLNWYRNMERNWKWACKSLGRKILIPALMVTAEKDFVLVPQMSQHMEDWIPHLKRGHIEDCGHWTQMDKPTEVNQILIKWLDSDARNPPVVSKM
Experimental: To investigate the effect of LCMs on sEH activity, we purified the human recombinant enzyme from sEH expressing Sf9 insect cells by benzylthio-sepharose affinity chromatography. […] The purified enzyme (60 ng) was diluted in 25 mM Tris HCl, pH 7 plus 0.1 mg/ml BSA and pre-incubated with LCMs for 10 min at room temperature. The enzymatic reaction was started by addition of PHOME (50 µM, Cayman Chemicals), which was converted to the fluorescent 6-methoxy-naphtaldehyde.

[2] = system: zymosan-induced murine peritonitis; experiment: Zymosan-induced peritonitis in mice; type: in vivo, mouse; settings: 10 mg/kg i.p.
Experimental: Mice were killed by inhalation of CO2 after another 30 min for determination of LTC4 levels and vascular permeability and after 4 h for the analysis of LTB4 levels, lipidomic profiles and immune cell infiltration. Cell infiltration and lipid mediator profiles during resolution were studied after 18 h. Peritoneal exudates were collected and cells counted after vital trypan blue staining. LTC4, LTB4, and PGE2 were analyzed in the exudate by enzyme immunoassays (Enzo Life Sciences, Lörrach, Germany) according to manufacturer's instructions. To assess vascular permeability, Evans blue dye (40 mg/kg in saline, 0.3 ml; Sigma-Aldrich) was injected into the tail vain immediately before the induction of peritonitis. Exudates were centrifuged (3000 × g, 5 min) and the absorbance of the supernatants was measured at 610 nm using a Beckman Coulter DU730 spectrophotometer. To investigate the effect of α-T (1a) on the accumulation of α-T-13'-COOH (4a) in infiltrated leukocytes after peritonitis has been established, vehicle or α-[…].) were given 1 h before and/or 4 h post zymosan injection, and mice were killed after another 1.5 h. Leukocytes were obtained from peritoneal exudates by centrifugation (1200 × g, 10 min, 4 °C).

COX-2 = biological target: T2, COX-2 (Homo sapiens, UniProt P35354); experiment: Activity of isolated COX-2; type: biochemical; set-up: purchased Cayman Chemicals; settings: up to 10 µM
T2 sequence (P35354 18-604): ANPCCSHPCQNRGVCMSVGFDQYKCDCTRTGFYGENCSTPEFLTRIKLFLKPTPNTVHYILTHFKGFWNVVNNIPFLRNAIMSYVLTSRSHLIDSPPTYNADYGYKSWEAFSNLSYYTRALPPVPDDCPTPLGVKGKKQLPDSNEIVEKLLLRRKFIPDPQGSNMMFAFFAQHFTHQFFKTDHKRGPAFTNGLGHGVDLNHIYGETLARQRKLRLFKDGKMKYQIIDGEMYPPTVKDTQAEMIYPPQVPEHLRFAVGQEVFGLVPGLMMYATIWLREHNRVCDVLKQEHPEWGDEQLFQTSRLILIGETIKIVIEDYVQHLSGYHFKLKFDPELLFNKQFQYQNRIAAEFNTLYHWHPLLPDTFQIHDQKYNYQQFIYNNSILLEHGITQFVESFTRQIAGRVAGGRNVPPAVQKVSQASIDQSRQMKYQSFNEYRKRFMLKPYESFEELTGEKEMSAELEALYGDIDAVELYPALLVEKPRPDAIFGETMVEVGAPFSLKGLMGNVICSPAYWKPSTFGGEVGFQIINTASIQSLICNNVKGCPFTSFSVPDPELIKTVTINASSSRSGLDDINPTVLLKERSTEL
Experimental: Purified bovine COX-1 (Cayman Chemicals; 50 units) or human recombinant COX-2 (Cayman Chemicals; 20 units) in 100 mM Tris buffer pH 8, 5 mM glutathione, 5 µM hemoglobin, and 100 µM EDTA were pre-incubated with LCMs for 5 min at 4 °C followed by 1 min at 37 °C. Formation of COX-derived 12(S)-hydroxy-5-cis-8,10-trans-heptadecatrienoic acid (12-HHT) was initiated by addition of AA (COX-1: 5 μM; COX-2: 2 μM).

intracellular Ca^2+ = experiment: Intracellular Ca2+ in fMLP-stimulated PMNL; type: cell-based, human
Experimental: PMNL (1 × 10^6) were incubated with Fura-2/AM (Thermo Fisher Scientific; 2 nmol) for 45 min at 37 °C, washed, resuspended in PBS pH 7.4 plus 1 mg/ml glucose and transferred to fluorescene 96-well microplates (Greiner). After pre-incubation with compounds for 10 min, 1 mM Ca^2+ was added, and cells were stimulated with fMLP (1 µM) for another 10 min. Intracellular Ca^2+ concentrations were determined using a thermally (37 °C) controlled NOVOstar fluorescence microplate reader [BMG Labtech, Ortenberg, Germany; emission at 510 nm, excitation at 340 nm (Ca^2+-bound Fura-2) and 380 nm (free Fura-2)][17]. The maximal fluorescence signal was recorded after lysis of […] with Triton X-100, and the minimal fluorescence was assessed by adding 20 mM EDTA to chelate Ca^2+. The difference in the signal ratio obtained with Triton X-100 and Triton X-100 plus 20 mM EDTA was set to 100% for each experiment.

PMNL = experiment: Uptake of vitamin E metabolites by PMNL; type: in vitro ADME, human; settings: 150 nM, 20 min; calculated for spherical PMNL, diameter 13 µm
Experimental: Freshly isolated PMNL (1 × 10^7/ml) were suspended in PBS pH 7.4 containing 1 mg/ml glucose. […] LCMs were extracted and analyzed by UPLC-MS/MS using γ-TE-13′-COOH (4g; 12.5 pmol) as internal standard. Intracellular vitamin E metabolite concentrations were calculated assuming spherical cell shape, an equal intracellular distribution, and an average diameter of 13 µm (as determined using a Vi-CELL Series Cell Counter, Beckman Coulter, Krefeld, Germany).

Cc1c(C)c2c(c(C)c1O)CC[C@@](C)(CCCC(C)CCCC(C)CCCC(C)C(=O)O)O2 (stereo partly drawn) [4a, 13-((2R)-6-hydroxy-2,5,7,8-tetramethylchroman-2-yl)-2,6,10-trimethyltridecanoic acid]
IC50 [1]: > 10 µM | vascular permeability ([2]; 30 min post zymosan): reduced | LTC4 levels in the exudate ([2]; 30 min post zymosan, ELISA): strongly decreased | immune cell infiltration into the peritoneal cavity ([2]; 4 h post zymosan): impaired | LTB4 levels in the exudate ([2]; 4 h post zymosan, ELISA): impaired | circulating resolvin E3 in plasma ([2]; 18 h post zymosan): strongly increased | suppressive effect on cell infiltration at the resolution phase ([2]; 18 h post zymosan): vanished | inhibition of human recombinant COX-2 (COX-2): not inhibited | effect on intracellular Ca^2+ (intracellular Ca^2+): neither affected | intracellular concentration reached in PMNL (PMNL): micromolar
